Test results reported in PubChem BioAssay (NCI).
“And” between values parts separate entries of the source, which are not always exact repeats. Identical values can stand only once.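 Cells were grown in 96-well plates and exposed to each compound for 48 hours at five concentrations; endpoints were interpolated linearly between bracketing concentrations, or set to the highest concentration if not reached. Abbreviation: GI50, concentration required for 50% inhibition of growth. TGI: concentration producing complete growth inhibition.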

Columns and labels:
Experiment in all cases: NCI tumour cell line growth inhibition, 48 h
K-562 leukemia = test system: K-562 leukemia
LOX IMVI melanoma = test system: LOX IMVI melanoma
HCC-2998 colon = test system: HCC-2998 colon
HS 578T breast = test system: HS 578T breast
UO-31 renal = test system: UO-31 renal
NCI-H460 lung = test system: NCI-H460 lung
NCI/ADR-RES ovarian = test system: NCI/ADR-RES ovarian
PC-3 prostate = test system: PC-3 prostate
U251 CNS = test system: U251 CNS
HCT-15 colon = test system: HCT-15 colon

Compound | GI50 (K-562 leukemia) | TGI (K-562 leukemia) | GI50 (LOX IMVI melanoma) | TGI (LOX IMVI melanoma) | GI50 (HCC-2998 colon) | TGI (HCC-2998 colon) | GI50 (HS 578T breast) | TGI (HS 578T breast) | GI50 (UO-31 renal) | TGI (UO-31 renal) | GI50 (NCI-H460 lung) | TGI (NCI-H460 lung) | GI50 (NCI/ADR-RES ovarian) | TGI (NCI/ADR-RES ovarian) | GI50 (PC-3 prostate) | TGI (PC-3 prostate) | GI50 (U251 CNS) | TGI (U251 CNS) | GI50 (HCT-15 colon) | TGI (HCT-15 colon)
Cn1ncc(Cl)c1-c1cc(C(=O)N[C@H](CN)Cc2cccc(F)c2)sc1Cl | 1.33 µM and 2.24 µM | 5.16 µM and 6.74 µM | 1.08 µM and 2.85 µM | 2.91 µM and 11.3 µM | 0.743 µM and 1.54 µM | 2.67 µM and 4.87 µM | 0.2 µM and 0.339 µM | 2.98 µM and 3.27 µM | 0.844 µM and 1.51 µM | > 7.4 µM and 12.5 µM | 0.406 µM and 0.568 µM | > 10 µM and 13.3 µM | 3.28 µM and 9.52 µM | > 7.74 µM and 23.5 µM | 0.32 µM and 0.554 µM | > 5.56 µM and 10.2 µM | 0.346 µM and 0.742 µM | > 4.58 µM and 12.8 µM | 1.44 µM and 2.59 µM | > 10 µM and 16.2 µM
COC[C@H](NC(=O)c1cnc(C)s1)C(=O)N[C@@H](COC)C(=O)N[C@@H](Cc1ccccc1)C(=O)[C@@]1(C)CO1 | 37.8 µM | > 100 µM | 17.8 µM | 38.4 µM | 18.2 µM | 37.6 µM | 26.5 µM | > 100 µM | 30.9 µM | > 100 µM | 37.1 µM | > 100 µM | > 100 µM | > 100 µM | 50.1 µM | > 100 µM | 47.8 µM | > 100 µM | 31.2 µM | > 100 µM
CC1(C)N=C(N)N=C(N)N1c1ccc(CNC(=O)Nc2ccc(S(=O)(=O)F)c(Cl)c2)c(Cl)c1 | 0.257 µM | > 100 µM | 0.396 µM | > 100 µM | 1.11 µM | > 100 µM | 21.8 µM | > 100 µM | 53.7 µM | > 100 µM | 0.0456 µM | > 100 µM | > 90.8 µM | > 100 µM | 0.0677 µM | > 100 µM | 0.51 µM | > 100 µM | 4.87 µM | > 100 µM
C[C@@H]1C[C@H](N)C[C@H](c2ccncc2NC(=O)c2ccc(F)c(-c3c(F)cccc3F)n2)C1 | 4.1 µM and 4.22 µM | 21.3 µM and > 10 µM | 10.6 µM and > 10 µM | 23.3 µM and > 10 µM | 3.42 µM and 4.16 µM | 18 µM and > 10 µM | 13.4 µM and > 10 µM | 49 µM and > 10 µM | 3.65 µM and 1.28 µM | 18.6 µM and > 10 µM | 13.7 µM and > 10 µM | 28.7 µM and > 10 µM | 14.5 µM and > 10 µM | 30.6 µM and > 10 µM | 3.83 µM and 2.68 µM | 17.5 µM and > 10 µM | 12 µM and > 10 µM | 24.7 µM and > 10 µM | 11.6 µM and > 10 µM | 25.7 µM and > 10 µM
CC1=C([Te]c2ccccc2)C(=O)c2ccccc2C1=O | 1.07 µM | 3.4 µM | 0.311 µM | 1.49 µM | 0.483 µM | 1.55 µM | 0.303 µM | 2.46 µM | 0.246 µM | 1.12 µM | 0.177 µM | 0.391 µM | 0.426 µM | 2.63 µM | 0.297 µM | 2.03 µM | 0.331 µM | 1.56 µM | 0.346 µM | 1.56 µM
CC1(C)Oc2ccc3ccc(=O)oc3c2C(O)C1O (stereo not drawn) |  | > 100 µM |  | > 100 µM |  | > 100 µM |  | > 100 µM |  | > 100 µM |  | > 100 µM |  | > 100 µM |  | > 100 µM |  | > 100 µM |  | > 100 µM
CCC(CC)n1cnc2c(-c3cnc(N)cn3)nc(N3CC4CCC(C3)O4)nc21 | 0.854 µM | > 100 µM | 0.428 µM | > 100 µM | 0.465 µM | > 100 µM | 0.209 µM | 1.61 µM | 0.0961 µM |  | 0.17 µM | > 100 µM | 0.79 µM | > 33.5 µM | 0.104 µM | > 100 µM | 1.3 µM | > 100 µM | 0.432 µM | > 100 µM
COc1cc2nc(N3CCCN(C)CC3)nc(NC3CCN(Cc4ccccc4)CC3)c2cc1OC | 1.47 µM | 4.56 µM | 1.68 µM | 3.28 µM | 2.71 µM | 8.76 µM | 2.04 µM | 5.59 µM | 1.69 µM | 3.2 µM | 2.19 µM | 4.81 µM | 13.4 µM | 34.8 µM | 4.4 µM | 20.1 µM | 2.22 µM | 5.96 µM | 1.83 µM | 4.41 µM
COc1ccc2c(c1)CCC1C2CC[C@@]2(C)C1CC[C@@H]2NC(=O)Cc1ccc(O)c(O)c1 (stereo partly drawn) | 4.31 µM | > 100 µM | 8.15 µM | 20.6 µM | 13.4 µM | 28.2 µM | 7.22 µM | 43.9 µM | 3.56 µM | 15.2 µM | 12.3 µM | 31.9 µM | 10.7 µM | 33.6 µM | 6.3 µM | 19.4 µM | 4.94 µM | 18.8 µM | 3.74 µM | 16.7 µM
O=C(O)c1cccc(S(=O)(=O)NCCO)c1 |  | > 100 µM |  | > 100 µM |  |  |  | > 100 µM |  | > 100 µM |  | > 100 µM |  | > 100 µM |  | > 100 µM |  | > 100 µM |  | > 100 µM
Oc1ccccc1-c1nn(CNc2ccc(Cl)cc2)c(=S)o1 | 0.263 µM | > 100 µM |  |  |  |  | > 100 µM | > 100 µM | > 100 µM | > 100 µM | 25.7 µM | > 100 µM | 18.9 µM | 79.7 µM | > 100 µM | > 100 µM | 31.9 µM | > 100 µM | 20 µM | 45.4 µM
Cc1ccc(OP(=O)(Oc2ccc(C)cc2)N2C=Cc3ccccc3C2C#N)cc1 (stereo not drawn) |  | > 100 µM |  | > 100 µM |  |  |  | > 100 µM |  | > 100 µM |  | > 100 µM |  | > 100 µM |  | > 100 µM |  | > 100 µM |  | > 100 µM
Cc1ccc(S(=O)(=O)ON2C(=O)c3cccc4cc([N+](=O)[O-])cc(c34)C2=O)cc1 |  |  |  | > 100 µM |  | 58.9 µM |  | > 100 µM |  | > 100 µM |  | > 100 µM |  | > 100 µM |  | > 100 µM |  | > 100 µM |  | > 100 µM
O=S(=O)(N=C1C(Cl)=C(Cl)C(=NS(=O)(=O)c2ccccc2)C(Cl)=C1Cl)c1ccccc1 | 21.4 µM | > 100 µM | 15.4 µM | 43.1 µM | 26.6 µM | 64.6 µM |  |  | 18.8 µM | 48.9 µM | 17.4 µM | 36.7 µM | 26.5 µM | > 100 µM | 24.3 µM | > 100 µM | 19.3 µM | 54 µM | 24.5 µM | > 100 µM
CN(C)c1ccc(/C=N/NC(N)=S)nc1 | 4.54 µM | > 100 µM | 2.71 µM | > 100 µM | 3.35 µM | > 100 µM |  |  | 2.34 µM | 7.46 µM | 2.89 µM | 29.3 µM | 4.08 µM | > 100 µM | 3.76 µM | > 100 µM | 3.99 µM | > 100 µM | 4.11 µM | > 100 µM
COc1nc(N)nc2c1ncn2C1CC(O)C(CO)O1 (stereo not drawn) |  | > 100 µM |  | > 100 µM |  |  |  | > 100 µM |  | > 100 µM |  | > 100 µM |  | > 100 µM |  | > 100 µM |  | > 100 µM |  | > 100 µM
C(=N\Nc1ncc(-c2cc3cc4c(cc3o2)OCO4)s1)/c1ccco1 | 2.1 µM | > 100 µM | 1.35 µM | 2.76 µM | 3.52 µM | 12.9 µM | 2.74 µM | 22.2 µM | 0.59 µM | 3.68 µM | 2.59 µM | 10.3 µM | 2.21 µM | > 100 µM | 1.79 µM | 12.4 µM | 2.9 µM | 14.5 µM |  | 
COc1ccc2c(c1)c(-c1nc(-c3cn(C)c4ccncc34)cs1)cn2C | 1.9 µM | 4.2 µM |  |  | 1.89 µM | 3.38 µM |  |  | 1.58 µM | 3.17 µM | 1.94 µM | 3.68 µM |  |  | 1.89 µM | 4.79 µM | 1.85 µM | 3.4 µM | 1.54 µM | 3.33 µM
[N-]=[N+]=NCN1C(=O)C2C3C=CC(C2C1=O)C1C2C(=O)N(CN=[N+]=[N-])C(=O)C2C31 (stereo not drawn) |  | > 100 µM |  | > 100 µM |  | 69.8 µM |  | > 100 µM |  | > 100 µM |  | > 100 µM |  | > 100 µM |  | > 100 µM |  |  |  | > 100 µM
C=C(C)[C@@H]1CC[C@]2(CO)CC[C@]3(C)[C@H](CC[C@@H]4[C@@]5(C)CCCNC(C)(C)[C@@H]5CC[C@]43C)[C@@H]12 | 1.08 µM | 3.79 µM |  |  | 1.51 µM | 2.93 µM | 1.99 µM | 4.79 µM | 1.56 µM | 2.99 µM | 1.63 µM | 3.21 µM | 1.63 µM | 3.18 µM | 1.51 µM | 2.94 µM | 1.65 µM | 3.09 µM | 1.39 µM | 2.77 µM
CSc1cc([C@@H]2C[C@H]2c2ccc(Cl)cc2)on1 | 35.1 µM | > 100 µM | 3.99 µM | 19.9 µM | 1.25 µM | 15 µM |  |  | 21.6 µM | > 100 µM | 19 µM | 43 µM | 13.6 µM | 42.4 µM | 16 µM | 33.6 µM | 9.24 µM | 32.3 µM | 10.8 µM | 36.9 µM
NC(=O)CC1OC(=O)Cc2cc3c(c(O)c21)C(=O)c1c(O)cccc1C3=O (stereo not drawn) |  | > 100 µM |  | > 100 µM |  | > 100 µM |  |  |  | > 100 µM |  | > 100 µM |  | > 100 µM |  | > 100 µM |  | > 100 µM |  | > 100 µM
